Where “and” joins values, the source holds several entries; their conditions need not be identical. Identical values can stand only once.
Legend:
Assay type in all cases: toxicity, cell-based
HEK-293T = experiment: Incucyte cell viability with HEK293T; details: human, 10 µM, compound concentration 10 uM
Fibroblast = experiment: Incucyte cell viability with human fibroblast; details: 10 µM, compound concentration 10 uM
U2OS = experiment: Incucyte cell viability with U2OS; details: human, 10 µM, compound concentration 10 uM
Note: unitless GR value; below 1 slowed growth and below 0 cell loss.

Row | SMILES | Growth Rate (HEK-293T; 6 h, replicate number 1) | Growth Rate (HEK-293T; 12 h, replicate number 1) | Growth Rate (Fibroblast; 24 h, replicate number 1) | Growth Rate (U2OS; 0 h, replicate number 1) | Growth Rate (U2OS; 0 h, replicate number 2) | Growth Rate (U2OS; 6 h, replicate number 1) | Growth Rate (U2OS; 18 h, replicate number 1) | Growth Rate (U2OS; 24 h, replicate number 2) | Growth Rate (HEK-293T; 6 h, replicate number 2) | Growth Rate (HEK-293T; 12 h, replicate number 2) | Growth Rate (HEK-293T; 18 h, replicate number 2) | Growth Rate (HEK-293T; 24 h, replicate number 2) | Growth Rate (Fibroblast; 18 h, replicate number 1) | Growth Rate (Fibroblast; 24 h, replicate number 2) | Growth Rate (U2OS; 6 h, replicate number 2) | Growth Rate (U2OS; 12 h, replicate number 1) | Growth Rate (U2OS; 12 h, replicate number 2) | Growth Rate (U2OS; 24 h, replicate number 1) | Growth Rate (Fibroblast; 6 h, replicate number 1) | Growth Rate (Fibroblast; 12 h, replicate number 2) | also measured
1 | COC(=O)c1ccc2c(c1)NC(=O)/C2=C(\Nc1ccc(N(C)C(=O)CN2CCN(C)CC2)cc1)c1ccccc1 [NINTEDANIB] | -0.42 | 0.57 | 0.4 | 0.64 | 0.08 | -0.05 | 0.97 | 0.99 |  |  |  |  |  |  |  |  |  |  |  |  | Growth Rate (Fibroblast; 0 h, replicate number 1): 0.43; Growth Rate (Fibroblast; 0 h, replicate number 2): -0.14
2 | CCOC(=O)C1=C(C)NC(C)=C(C(=O)OC)C1c1cccc([N+](=O)[O-])c1 (centres undefined) [NITRENDIPINE] | 0.11 |  |  | 0.22 | -0.99 | 0.47 |  | 0.9 | -0.36 | 0.63 | 0.99 | 0.95 | -0.02 | 0.95 | 0.51 | 0.89 | 0.71 | 0.91 |  |  | Growth Rate (Fibroblast; 0 h, replicate number 1): -0.46; Growth Rate (Fibroblast; 0 h, replicate number 2): -0.98; Growth Rate (U2OS; 18 h, replicate number 2): 0.86
3 | CC(C)(O)[C@H]1CC[C@H](Nc2ccc3ncc(-c4cccc(C(F)(F)F)c4)n3n2)CC1 [NUVISERTIB] | -0.61 | -0.5 | -0.39 | -0.52 |  | 0.88 | 0.38 | 0.08 | -0.3 | -0.3 | -0.12 | -0.02 | -0.46 | -0.47 | 0.42 | 0.46 | 0.24 | 0.32 | -0.74 | -0.72 | Growth Rate (HEK-293T; 0 h, replicate number 2): -0.24; Growth Rate (HEK-293T; 18 h, replicate number 1): -0.39; Growth Rate (HEK-293T; 24 h, replicate number 1): -0.27; Growth Rate (Fibroblast; 6 h, replicate number 2): -0.83; Growth Rate (Fibroblast; 12 h, replicate number 1): -0.53; Growth Rate (Fibroblast; 18 h, replicate number 2): -0.6; Growth Rate (U2OS; 18 h, replicate number 2): 0.15
4 | CC[C@H]1[C@@H](O)[C@@H]2[C@H](CC[C@]3(C)[C@@H]([C@H](C)CCC(=O)O)CC[C@@H]23)[C@@]2(C)CC[C@@H](O)C[C@@H]12 [OBETICHOLIC ACID] |  |  | 0.9 |  |  | -0.88 |  |  | 0.83 | 0.96 |  |  | 0.82 | 0.95 |  | 0.87 |  |  | 0.39 | 0.62 | Growth Rate (HEK-293T; 0 h, replicate number 1): 0.42; Growth Rate (HEK-293T; 0 h, replicate number 2): -0.65; Growth Rate (Fibroblast; 6 h, replicate number 2): 0.74; Growth Rate (Fibroblast; 12 h, replicate number 1): 0.91; Growth Rate (Fibroblast; 18 h, replicate number 2): 0.87
5 | Cl.NCC(O)c1ccc(O)cc1 (centres undefined) [OCTOPAMINE HYDROCHLORIDE] | 0.45 |  |  | 0.94 | -0.87 | 0.64 | 0.83 | 0.95 | 0.94 |  |  |  | -0.19 |  | 0.65 | 0.99 | 0.92 | 0.97 |  | 0.8 | Growth Rate (HEK-293T; 0 h, replicate number 1): 0.76; Growth Rate (HEK-293T; 0 h, replicate number 2): 0.66; Growth Rate (Fibroblast; 6 h, replicate number 2): -0.67; Growth Rate (U2OS; 18 h, replicate number 2): 0.87
6 | CCCCCCCC/C=C\CCCCCCCC(=O)NCCO [OLEOYLETHANOLAMIDE] |  |  | 0.78 | -0.18 | 0.62 | 0.87 | 0.81 | 0.76 | 0.43 | 0.83 | 0.75 | 0.62 | 0.35 | 0.98 | 0.54 | 0.87 | 0.68 | 0.79 | 0.19 | 0.96 | Growth Rate (HEK-293T; 0 h, replicate number 1): -0.38; Growth Rate (Fibroblast; 12 h, replicate number 1): 0.64; Growth Rate (U2OS; 18 h, replicate number 2): 0.74
7 | CCCCCCCC/C=C\CCCCCCCC(=O)NCc1ccc(O)c(OC)c1 [OLVANIL] | -0.94 | -0.75 | 0.91 |  |  | 0.77 | 0.88 |  |  |  |  |  |  | 0.68 | 0.84 |  | 0.94 | 0.87 |  | 0.83 | Growth Rate (HEK-293T; 0 h, replicate number 2): 0.7; Growth Rate (HEK-293T; 18 h, replicate number 1): -0.47; Growth Rate (HEK-293T; 24 h, replicate number 1): -0.25; Growth Rate (Fibroblast; 0 h, replicate number 1): 0.97; Growth Rate (Fibroblast; 0 h, replicate number 2): -0.71; Growth Rate (Fibroblast; 18 h, replicate number 2): 0.53
8 | O=C(O)/C=C/c1ccc(Cn2ccnc2)cc1 [OZAGREL] |  |  | 0.78 |  | 0.65 | 0.91 |  |  |  | 0.92 |  |  | 0.97 |  |  |  | 0.94 | 0.94 |  |  | Growth Rate (HEK-293T; 0 h, replicate number 1): 0.5; Growth Rate (HEK-293T; 0 h, replicate number 2): 0.4; Growth Rate (HEK-293T; 18 h, replicate number 1): 0.96; Growth Rate (Fibroblast; 0 h, replicate number 1): -1; Growth Rate (Fibroblast; 0 h, replicate number 2): -0.85
9 | CC(=O)O[C@H]1C(=O)[C@@]2(C)[C@H]([C@H](OC(=O)c3ccccc3)[C@]3(O)C[C@H](OC(=O)[C@H](O)[C@@H](NC(=O)c4ccccc4)c4ccccc4)C(C)=C1C3(C)C)[C@]1(OC(C)=O)CO[C@@H]1C[C@@H]2O [PACLITAXEL] | -0.33 | -0.21 | -0.39 | -0.26 | -0.23 | -0.32 | -0.26 | -0.18 | -0.69 | -0.41 | -0.22 | -0.02 | -0.54 | -0.34 | -0.43 | -0.21 | -0.45 | -0.07 | -0.64 | -0.57 | Growth Rate (HEK-293T; 18 h, replicate number 1): -0.08; Growth Rate (HEK-293T; 24 h, replicate number 1): 0.05; Growth Rate (Fibroblast; 0 h, replicate number 1): -1; Growth Rate (Fibroblast; 6 h, replicate number 2): -0.99; Growth Rate (Fibroblast; 12 h, replicate number 1): -0.7; Growth Rate (Fibroblast; 18 h, replicate number 2): -0.67; Growth Rate (U2OS; 18 h, replicate number 2): -0.43
10 | CC(=O)c1c(C)c2cnc(Nc3ccc(N4CCNCC4)cn3)nc2n(C2CCCC2)c1=O [PALBOCICLIB] | 0.61 | 0.77 | 0.79 |  |  | 0.72 and 0.58 | 0.59 and 0.72 |  | 0.69 | 0.81 | 0.8 | 0.75 | 0.87 |  | 0.97 | 0.87 and 0.84 |  | 0.76 and 0.92 | 0.91 |  | Growth Rate (HEK-293T; 0 h, replicate number 1): 0.2; Growth Rate (HEK-293T; 0 h, replicate number 2): 0.78; Growth Rate (HEK-293T; 18 h, replicate number 1): 0.78; Growth Rate (HEK-293T; 24 h, replicate number 1): 0.83 and 0.98; Growth Rate (Fibroblast; 0 h, replicate number 1): -0.2; Growth Rate (Fibroblast; 12 h, replicate number 1): 0.92; Growth Rate (Fibroblast; 18 h, replicate number 2): 0.98
11 | Cl.O=C1c2cccc3c2[C@H](CCC3)CN1[C@@H]1CN2CCC1CC2 [PALONOSETRON HYDROCHLORIDE] | 0.51 | 0.41 |  | -0.52 | -0.79 |  |  | 0.98 | -0.08 | 0.03 | 0.08 | 0.19 |  | 0.92 |  |  |  | 0.92 | -0.99 |  | Growth Rate (HEK-293T; 0 h, replicate number 1): 0.61; Growth Rate (HEK-293T; 18 h, replicate number 1): 0.55; Growth Rate (HEK-293T; 24 h, replicate number 1): 0.34; Growth Rate (Fibroblast; 0 h, replicate number 2): 0.54
12 | Cl.Cl.Fc1ccc([C@@H]2CCNC[C@H]2COc2ccc3c(c2)OCO3)cc1.Fc1ccc([C@@H]2CCNC[C@H]2COc2ccc3c(c2)OCO3)cc1.O [PAROXETINE HYDROCHLORIDE] | 0.25 |  |  |  | -1 | 0.82 |  | 0.98 |  |  |  | 0.86 |  | 0.62 | 0.89 |  | 0.84 |  | -0.26 | 0.54 | Growth Rate (Fibroblast; 6 h, replicate number 2): -1; Growth Rate (Fibroblast; 12 h, replicate number 1): -1; Growth Rate (Fibroblast; 18 h, replicate number 2): 0.59; Growth Rate (U2OS; 18 h, replicate number 2): 0.89
13 | CCN1C(=O)N(c2c(F)c(OC)cc(OC)c2F)Cc2cnc3[nH]c(CN4CCOCC4)cc3c21 [PEMIGATINIB] |  | 0.76 | 0.19 | -0.31 | -0.02 | 0.58 | 0.5 | 0.19 | 0.25 | 0.59 | 0.33 | 0.3 | 0.23 | 0.49 | -0.01 | -0.36 | 0.07 | 0.62 | 0.04 | 0.45 | Growth Rate (HEK-293T; 0 h, replicate number 1): 0; Growth Rate (HEK-293T; 18 h, replicate number 1): 0.68; Growth Rate (HEK-293T; 24 h, replicate number 1): 0.57; Growth Rate (Fibroblast; 0 h, replicate number 2): 0.11; Growth Rate (Fibroblast; 6 h, replicate number 2): 0.12; Growth Rate (Fibroblast; 12 h, replicate number 1): 0.42; Growth Rate (Fibroblast; 18 h, replicate number 2): 0.53; Growth Rate (U2OS; 18 h, replicate number 2): 0.2
